# Reference: paper PMC10303384, “The Effect of Terbinafine and Its Ionic Salts on Certain Fungal Plant Pathogens” (Molecules, 2023)
# Key:
# [1] = test system: Rhizoctonia solani (R. solani); test: microbe, parasite or virus in culture; assay type: cell-based
# [2] = test system: Botrytis cinerea (B. cinerea); test: In vitro fungicidal activity, mycelial (hyphae) growth inhibition on PDA; assay type: cell-based
# [3] = test system: Phomopsis capsici (P. capsica); test: as above; assay type: cell-based; conditions: mean ± SD of three replicates
# [4] = test system: B. cinerea on cherry tomatoes; test: In vivo antifungal bioassay on cherry tomatoes; set-up: species or system Botrytis cinerea; conditions: 20 mg/L
# [5] = test system: Alternaria solani (A. solani); test: In vitro fungicidal activity, mycelial (hyphae) growth inhibition on PDA; assay type: cell-based
# [6] = test system: Fusarium graminearum (F. graminearum); test: microbe, parasite or virus in culture; assay type: cell-based
# [7] = Solubility classification in representative solvents (Vogel protocol); assay type: physicochemical; conditions: 25 °C, test amount 0.1 g
# Experimental: This investigation details how to determine the solubility of terbinafine and its salts, guided by the experimental protocol in Vogel’s Textbook of Practical Organic Chemistry. Based on the Snyder polarity index values of the representative solvents, each solvent was tested for its ability to dissolve the target analytes. The solubility data was classified into three categories based on the observed extent of dissolution. […] The experimental procedures were performed at 25 °C and under ambient pressure.
# Valsa malicola (V. mali) = test: In vitro fungicidal activity, mycelial (hyphae) growth inhibition on PDA; assay type: cell-based
# [8] = test system: Pythium aphanidermatum (P. aphanidermatum); test: as above; assay type: cell-based; conditions: mean ± SD of three replicates
# [9] = Surface tension of saturated aqueous solutions, Du Noüy ring method; conditions: 25 °C
# Experimental: This method involved adjusting the stage positioning of the solvent container such that a platinum ring could be immersed below the liquid interface or pulled through the meniscus. […] The maximum force was recorded as the surface tension of the solvent. To ensure accuracy, the platinum ring was thoroughly cleaned between each measurement through rinsing with double-distilled water and wiping it dry. The surface tension determination was performed in quadruplicate.
# [10] = Critical micelle concentration by electrical conductivity; conditions: 25 °C
# Experimental: The critical micelle concentrations (CMCs) of the TISs were measured using electrical conductivity at 25 °C, as shown in Figure S16.
# The critical micelle concentrations (CMCs) of all the TISs were determined using an electrical conductivity meter (Leica Desktop Conductivity Meter DDSJ-308F, Shanghai Oustor Industrial Co., Ltd. Shanghai, China).
# [11] = test system: Pyricularia oryzae (P. oryzae); test: microbe, parasite or virus in culture; assay type: cell-based
# [12] = Solubility of saturated solutions by HPLC at 25 °C; assay type: physicochemical
# Source text: The filtrate was then passed through a 0.22 μm nylon membrane filter and subjected to HPLC analysis. Based on Wang’s report about the chromatographic parameters, modifications to the mobile phase ratio were made. The replicability of the results was ensured by performing each measurement in triplicate.
# [13] = 50 mg/L, mean ± SD of three replicates
smiles,measurement,setting,value
"CN(C/C=C/C#CC(C)(C)C)Cc1cccc2ccccc12.O=C(O)c1ccco1 [TIS 5, (E)-N,6,6-trimethyl-N-(naphthalen-1-ylmethyl)hept-2-en-4-yn-1-aminium furan-2-carboxylate]",EC50 (mg/L),[1],2.43 mg/L
same,Inhibition Rate at 50 mg/L (%) R. s,[1]; 50 mg/L,82.02 ± 0.91%
same,EC50,[1]; read-out: EC50,6020 nM
same,Inhibition Rate at 50 mg/L (%) B. c,[2]; [13],100 ± 0%
same,EC50 (mg/L),[2]; B. cinerea,0.13 mg/L
same,EC50,"[2]; B. cinerea, read-out: EC50 (μmol/L)",0.33 µmol/L
same,Inhibition Rate at 50 mg/L (%) P. c,[3],55.88 ± 1.89%
same,Diameter of infection (cm) 4 days,[4]; 4 days after treatment,0.61 cm
same,Diameter of infection (cm) 7 days,[4]; 7 days after treatment,0.74 cm
same,Inhibition Rate at 50 mg/L (%) A. s,[5]; [13],98.67 ± 0.61%
same,EC50 (mg/L),[5]; A. solani,0.08 mg/L
same,improvement of antifungal activity compared to terbinafine,"[5]; A. solani, from EC50",20%
same,EC50,"[5]; A. solani, read-out: EC50 (μmol/L)",0.2 µmol/L
same,Inhibition Rate at 50 mg/L (%) F. g,[6]; [13],100 ± 0%
same,EC50 (mg/L),[6]; F. graminearum,0.11 mg/L
same,EC50,"[6]; F. graminearum, read-out: EC50",270 nM
same,Solubility in n-Hexane,[7]; Snyder polarity index 0.0,"− (“−” means insoluble in a 3 mL solvent, poor solubility)"
same,Solubility in Toluene,[7]; Snyder polarity index 2.3,"+ (“+” means soluble in a 1 mL solvent, good solubility)"
same,Solubility in Chloroform,[7]; Snyder polarity index 4.1,"+ (“+” means soluble in a 1 mL solvent, good solubility)"
same,Solubility in Ethyl acetate,[7]; Snyder polarity index 4.3,"+ (“+” means soluble in a 1 mL solvent, good solubility)"
same,Solubility in Isopropanol,[7]; Snyder polarity index 4.3,"+ (“+” means soluble in a 1 mL solvent, good solubility)"
same,Solubility in Acetone,[7]; Snyder polarity index 5.1,"+ (“+” means soluble in a 1 mL solvent, good solubility)"
same,Solubility in Acetonitrile,[7]; Snyder polarity index 6.2,"+ (“+” means soluble in a 1 mL solvent, good solubility)"
same,Solubility in DMSO,[7]; Snyder polarity index 6.5,"+ (“+” means soluble in a 1 mL solvent, good solubility)"
same,Solubility in Methanol,[7]; Snyder polarity index 6.6,"+ (“+” means soluble in a 1 mL solvent, good solubility)"
same,Solubility in Water,[7]; Snyder polarity index 9.0,"− (“−” means insoluble in a 3 mL solvent, poor solubility)"
same,Inhibition Rate at 50 mg/L (%) V. m,Valsa malicola (V. mali); [13],100 ± 0%
same,EC50 (mg/L),Valsa malicola (V. mali); V. mali,1.49 mg/L
same,improvement of antifungal activity compared to terbinafine,"Valsa malicola (V. mali); V. mali, from EC50",14%
same,EC50,"Valsa malicola (V. mali); V. mali, read-out: EC50 (μmol/L)",3.69 µmol/L
same,Inhibition Rate at 50 mg/L (%) P. a,[8],71.96 ± 2.68%
same,surface tension of the saturated aqueous solution,[9],51.26 mN·m^−1
same,critical micelle concentration (CMC),[10],0.66 mmol/L
same,Inhibition Rate at 50 mg/L (%) P. o,[11]; [13],96.68 ± 0.42%
same,EC50 (mg/L),[11]; P. oryzae,0.49 mg/L
same,EC50,"[11]; P. oryzae, read-out: EC50",1220 nM
same,"Solubility, n-Hexane",[12]; Table S1,1.02 µM
same,water solubility,[12]; water,5880 µM
